Measurements reported in patent US7718653B2, “Pyrimidine derivatives for inhibiting Eph receptors” (AstraZeneca AB, priority 2007, dated 2010).

Molecular target: T1, EphB4 (Homo sapiens, UniProt P54760)
T1 construct: to generate full-length EphB4 containing a Myc-His tag at the C-terminus; expressed in transfected cells; EphB4-CHO)
T1 sequence (P54760 16-987): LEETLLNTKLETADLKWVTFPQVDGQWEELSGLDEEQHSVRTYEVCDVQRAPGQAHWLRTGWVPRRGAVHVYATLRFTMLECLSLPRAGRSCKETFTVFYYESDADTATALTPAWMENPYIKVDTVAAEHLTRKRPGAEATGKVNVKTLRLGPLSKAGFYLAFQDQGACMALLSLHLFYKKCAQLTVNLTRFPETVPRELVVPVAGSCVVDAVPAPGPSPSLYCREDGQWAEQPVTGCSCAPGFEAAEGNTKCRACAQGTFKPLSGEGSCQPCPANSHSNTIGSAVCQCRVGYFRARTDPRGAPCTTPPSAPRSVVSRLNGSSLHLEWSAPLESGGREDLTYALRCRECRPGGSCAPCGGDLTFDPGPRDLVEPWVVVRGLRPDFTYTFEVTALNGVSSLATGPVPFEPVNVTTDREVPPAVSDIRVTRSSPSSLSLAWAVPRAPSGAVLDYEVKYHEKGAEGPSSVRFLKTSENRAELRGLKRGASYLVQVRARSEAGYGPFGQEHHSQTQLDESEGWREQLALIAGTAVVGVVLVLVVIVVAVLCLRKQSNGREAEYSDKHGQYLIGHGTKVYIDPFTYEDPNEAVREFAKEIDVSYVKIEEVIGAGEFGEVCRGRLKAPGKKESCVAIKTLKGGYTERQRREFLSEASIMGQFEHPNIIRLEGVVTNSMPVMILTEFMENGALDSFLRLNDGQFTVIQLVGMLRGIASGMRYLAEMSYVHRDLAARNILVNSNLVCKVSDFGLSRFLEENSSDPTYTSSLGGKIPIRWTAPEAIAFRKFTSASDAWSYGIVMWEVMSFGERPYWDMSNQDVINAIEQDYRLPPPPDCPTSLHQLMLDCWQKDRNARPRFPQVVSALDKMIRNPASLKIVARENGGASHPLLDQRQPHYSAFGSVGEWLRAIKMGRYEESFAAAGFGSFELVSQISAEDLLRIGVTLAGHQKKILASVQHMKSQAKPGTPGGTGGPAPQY
Assay: In vitro EphB4 cell assay (EphB4 phosphorylation in EphB4-CHO cells, sandwich ELISA)
Type: cell-based
Details: stimulated with clustered ephrin-B2, read-out: IC50 in assay B
Method: B) In vitro EphB4 Cell Assay
The assay identifies inhibitors of cellular EphB4 by measuring a decrease in phosphorylation of EphB4 following treatment of cells with compound. The endpoint assay used a sandwich ELISA to detect EphB4 phosphorylation status. Briefly, Myc-tagged EphB4 from treated cell lysate was captured on the ELISA plate via an anti-c-Myc antibody. The phosphorylation status of captured EphB4 was then measured using a generic phosphotyrosine antibody conjugated to HRP via a colourimetric output catalysed by HRP, with level of EphB4 phosphorylation directly proportional to the colour intensity. Absorbance was measured spectrophotometrically at 450 nm.
Full length human EphB4 (Swiss-Prot Acc. No. P54760) was cloned using standard techniques from cDNA prepared from HUVEC using RT-PCR. The cDNA fragment was then sub-cloned into a pcDNA3.1 expression vector containing a Myc-His epitope tag to generate full-length EphB4 containing a Myc-His tag at the C-terminus (Invitrogen Ltd. Paisley, UK). CHO-K^1 cells (LGC Promochem, Teddington, Middlesex, UK, Catalogue No. CCL-61) were maintained in HAM's F12 medium (Sigma-Aldrich Company Ltd, Gillingham, Dorset SP8 4XT, Catalogue No. N4888) containing 10% heat-inactivated foetal calf serum (PAA lab GmbH, Pasching, Austria Catalogue No. PAA-A15-043) and 1% glutamax-1 (Invitrogen Ltd., Catalogue No. 35050-038) at 37° C. with 5% CO2. […]

Q: c1cc(Nc2ccnc(Nc3cc(N4CCOCC4)nc(N4CCOCC4)c3)n2)c2cn[nH]c2c1 [Example 3, N2-(2,6-dimorpholinopyridin-4-yl)-N4-(1H-indazol-4-yl)pyrimidine-2,4-diamine] was tested. Which IC50 did it give?
A: 26 nM
